As usually defined, the IC50 is the concentration that gives 50% inhibition.

This assay deals with T1, HCV NS3-4A protease (Hepatitis C virus genotype 1a, UniProt P27958).
T1 construct: HCV NS3-4A protease
Nature of the assay: HCV NS3-4A protease assay in vitro (FRET-S substrate). Format: biochemical. The protocol: HCV NS3-4A Protease Assay In Vitro.
The assay was conducted in Buffer A containing 30 mM NaCl, 5 mM CaCl2, 10 mM DTT, 50 mM Tris (pH7.8), using the Ac-Asp-Glu-Asp(EDANS)-Glu-Glu-Abu-ψ-[COO]-Ala-Ser-Lys (DABCYL)-NH2 (FRET-S) fluorescent peptide (AnaSpec, USA) as substrate. Briefly, 140 μL buffer A, 20 μL compounds dissolved in buffer A with different concentration and 20 μL HCV NS3-4A protease diluted in buffer A were added into 96-well plate respectively and mixed well. The reaction was initiate with adding 20 μL of FRET-S. Reactions were continuously monitored at 37° C. using a BMG Polarstar Galaxy (MTX Lab Systems, Inc. USA), with excitation and emission filters of 355 nm and 520 nm, respectively. The 50% inhibitory concentration (IC50) was calculated with Reed & Muench methods.

Where [1] appears, read: HCV NS3-4A protease inhibition, 37° C., class symbols, read-out: NS3-NS4A IC50.

Like-named read-outs stand apart in the source and are kept apart here.

T1 sequence (P27958 1027-1657): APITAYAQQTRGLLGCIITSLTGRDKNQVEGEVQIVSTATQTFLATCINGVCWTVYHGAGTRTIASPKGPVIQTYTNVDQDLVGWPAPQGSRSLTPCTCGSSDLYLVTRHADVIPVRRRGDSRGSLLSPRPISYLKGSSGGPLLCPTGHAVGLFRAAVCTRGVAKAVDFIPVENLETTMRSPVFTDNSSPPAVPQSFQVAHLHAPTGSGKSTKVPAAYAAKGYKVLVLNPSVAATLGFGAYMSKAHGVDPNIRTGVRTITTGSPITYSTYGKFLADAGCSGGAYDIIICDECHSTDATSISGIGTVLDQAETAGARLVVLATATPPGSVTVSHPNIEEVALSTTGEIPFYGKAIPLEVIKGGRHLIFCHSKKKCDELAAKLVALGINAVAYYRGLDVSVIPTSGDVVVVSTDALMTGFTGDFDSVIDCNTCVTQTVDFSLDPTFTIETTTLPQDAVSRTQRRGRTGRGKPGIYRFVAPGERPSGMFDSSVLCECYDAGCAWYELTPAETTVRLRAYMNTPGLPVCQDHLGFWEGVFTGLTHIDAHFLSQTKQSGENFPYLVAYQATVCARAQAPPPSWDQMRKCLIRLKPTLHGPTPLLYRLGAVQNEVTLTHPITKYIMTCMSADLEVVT
T1 sequence (P27958 1658-1711): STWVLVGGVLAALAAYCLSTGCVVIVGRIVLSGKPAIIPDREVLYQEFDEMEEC

On to `CC(C)(C)OC(=O)N[C@H]1CCCCC/C=C\[C@@H]2C[C@@]2(C(=O)NS(=O)(=O)C2CC2)NC(=O)[C@@H]2C[C@@H](OC(=O)N3Cc4ccc5c(c4C3)OCCCO5)CN2C1=O` [Compound 12n], for which the IC50 under setting [1] is under 30 nM.
On to `O=C1N[C@]2(C(=O)NS(=O)(=O)C3CC3)C[C@H]2/C=C\CCCCC[C@H](NS(=O)(=O)c2ccc(Cl)cc2)C(=O)N2C[C@H](OC(=O)N3Cc4cc5c(cc4C3)OCO5)C[C@@H]12` [Compound 16a], for which the IC50 under setting [1] was under 30 nM.
As to `CC(C)(C)OC(=O)N[C@H]1CCCCC/C=C\[C@@H]2C[C@@]2(C(=O)NS(=O)(=O)C2CC2)NC(=O)[C@@H]2C[C@@H](OC(=O)N3Cc4cccc(F)c4C3)CN2C1=O` [Compound 12-Ref, reference compound], the IC50 under setting [1] was under 30 nM.
As for `CC[C@H]1C[C@@]1(NC(=O)C1C[C@@H](OC(=O)N2Cc3cc4c(cc3C2)OCCCO4)CN1C(=O)[C@@H](NC(=O)[C@@H](NC(=O)OC1CCCC1)C1CCCCC1)C(C)(C)C)C(=O)NS(=O)(=O)C1CC1` (some centres unmarked) [Compound 30ae], the 50% inhibitory concentration (IC50) lay in the range of 30 to 200 nM.
For `C=C[C@H]1C[C@@]1(NC(=O)C1C[C@@H](OC(=O)N2Cc3ccc4c(c3C2)OCO4)CN1C(=O)[C@@H](NC(=O)OC1CCCC1)C(C)(C)C)C(=O)NS(=O)(=O)C1CC1` (some centres unmarked) [Compound 30an], under setting [1], the IC50 was under 30 nM.
`CC[C@H]1C[C@@]1(NC(=O)C1C[C@@H](OC(=O)N2Cc3cc4c(cc3C2)OCCCO4)CN1C(=O)[C@@H](NC(=O)[C@@H](NC(=O)c1cnccn1)C1CCCCC1)C(C)(C)C)C(=O)NS(=O)(=O)C1CC1` (some centres unmarked) [Compound 30h] registered an IC50 of under 30 nM.
With `CN1CCCCC/C=C\[C@@H]2C[C@@]2(C(=O)NS(=O)(=O)C2CC2)NC(=O)[C@@H]2CC(OC(=O)N3Cc4cc5c(cc4C3)OCCO5)CN2C1=O` (some centres unmarked) [Compound 27b], the IC50 under setting [1] is 30 to 200 nM.
`CC(C)(C)OC(=O)N[C@H]1CCCCC/C=C\[C@@H]2C[C@@]2(C(=O)NS(=O)(=O)C2CC2)NC(=O)[C@@H]2C[C@@H](OC(=O)N3Cc4cc5c(cc4C3)OCCCO5)CN2C1=O` [Compound 12p]: the IC50 under setting [1] is under 30 nM.
Regarding `O=C(N[C@H]1CCCCC/C=C\[C@@H]2C[C@@]2(C(=O)NS(=O)(=O)C2CC2)NC(=O)[C@@H]2C[C@@H](OC(=O)N3Cc4cc5c(cc4C3)OCO5)CN2C1=O)OC1CCCC1` [Compound 12r], the IC50 under setting [1] is under 30 nM.
Turning to `CC(C)S(=O)(=O)NC(=O)[C@@]12C[C@H]1/C=C\CCCCC[C@H](NC(=O)OC(C)(C)C)C(=O)N1C[C@H](OC(=O)N3Cc4cc5c(cc4C3)OCO5)C[C@H]1C(=O)N2` [Compound 12h], the IC50 under setting [1] is under 30 nM.
On the same count and under the same terms, in the case of `CC(C)(C)OC(=O)N[C@H]1CCCCC/C=C\[C@@H]2C[C@@]2(C(=O)NS(=O)(=O)C2CC2)NC(=O)[C@@H]2C[C@@H](OC(=O)N3Cc4cc5c(cc4C3)OCCO5)CN2C1=O` [Compound 12c] it was under 30 nM.
Turning to `CC[C@H]1C[C@@]1(NC(=O)C1C[C@@H](OC(=O)N2Cc3cc4c(cc3C2)OCO4)CN1C(=O)[C@@H](NC(=O)[C@@H](NC(=O)OC1CCCC1)C1CCCCC1)C(C)(C)C)C(=O)NS(=O)(=O)C1CC1` (some centres unmarked) [Compound 30t], the IC50 was under 30 nM.
With `CN1CCCCC/C=C\[C@@H]2C[C@@]2(C(=O)NS(=O)(=O)C2CC2)NC(=O)[C@@H]2CC(OC(=O)N3Cc4cc5c(cc4C3)OCO5)CN2C1=O` (some centres unmarked) [Compound 27a], under setting [1], the IC50 fell in the range of 30 to 200 nM.
With `CC(C)(C)OC(=O)N[C@H]1CCCCC/C=C\[C@@H]2C[C@@]2(C(=O)O)NC(=O)[C@@H]2C[C@@H](OC(=O)N3Cc4cc5c(cc4C3)OCO5)CN2C1=O` [Compound 11d], the IC50 under setting [1] was over 200 nM.
As to `CC(C)(C)OC(=O)N[C@H]1CCCCC/C=C\[C@@H]2C[C@@]2(C(=O)O)NC(=O)[C@@H]2C[C@@H](OC(=O)N3Cc4ccc5c(c4C3)OCO5)CN2C1=O` [Compound 11a], the IC50 under setting [1] was over 200 nM.
Same read-out and setting: the same measure for `CN1CCCCC/C=C\[C@@H]2C[C@@]2(C(=O)NS(=O)(=O)C2CC2)NC(=O)[C@@H]2CC(OC(=O)N3Cc4cccc(F)c4C3)CN2C1=O` (some centres unmarked) [Compound 27-Ref, reference compound]: 30 to 200 nM; for `CC[C@H]1C[C@@]1(NC(=O)C1C[C@@H](OC(=O)N2Cc3cc4c(cc3C2)OCO4)CN1C(=O)[C@@H](NC(=O)[C@@H](NS(=O)(=O)c1ccc2ccccc2c1)C1CCCCC1)C(C)(C)C)C(=O)NS(=O)(=O)C1CC1` (some centres unmarked) [Compound 30s]: under 30 nM; for `CC(C)(C)OC(=O)N([C@H]1CCCCC/C=C\[C@@H]2C[C@@]2(C(=O)NS(=O)(=O)C2CC2)NC(=O)[C@@H]2C[C@@H](OC(=O)N3Cc4cccc(F)c4C3)CN2C1=O)S(C)(=O)=O` [Compound 12u]: under 30 nM.
`CC[C@H]1C[C@@]1(NC(=O)C1C[C@@H](OC(=O)N2Cc3cc4c(cc3C2)OCO4)CN1C(=O)[C@@H](NC(=O)[C@@H](NC(=O)OC(C)(C)C)C1CCCCC1)C(C)(C)C)C(=O)NS(=O)(=O)C1CC1` (some centres unmarked) [Compound 30m] yielded an IC50 of under 30 nM.
Consider `CC(C)S(=O)(=O)NC(=O)[C@@]12C[C@H]1/C=C\CCCCCN(C)C(=O)N1CC(OC(=O)N3Cc4cc5c(cc4C3)OCO5)C[C@H]1C(=O)N2` (some centres unmarked) [Compound 27c], for which, under setting [1], the concentration for half-maximal inhibition (IC50) was 30 to 200 nM.
On to `O=C1N[C@]2(C(=O)NS(=O)(=O)C3CC3)C[C@H]2/C=C\CCCCN(C2CC2)C(=O)C2C[C@H](OC(=O)N3Cc4ccc5c(c4C3)OCO5)C[C@@H]12` (some centres unmarked) [Compound 21f], for which the IC50 under setting [1] fell in the range of 30 to 200 nM.
The compound `CC[C@H]1C[C@@]1(NC(=O)C1C[C@@H](OC(=O)N2Cc3cc4c(cc3C2)OCCCO4)CN1C(=O)[C@@H](NC(=O)[C@@H](NC(=O)OC(C)(C)C)C1CCCCC1)C(C)(C)C)C(=O)NS(=O)(=O)C1CC1` (some centres unmarked) [Compound 30ad] yielded an IC50 of 30 to 200 nM.
`CCOC(=O)N[C@H](C(=O)N[C@H](C(=O)N1C[C@H](OC(=O)N2Cc3cc4c(cc3C2)OCO4)CC1C(=O)N[C@@]1(C(=O)NS(=O)(=O)C2CC2)C[C@@H]1CC)C(C)(C)C)C1CCCCC1` (some centres unmarked) [Compound 30v]: the IC50 was under 30 nM.
For `CC(C)(C)OC(=O)N([C@H]1CCCCC/C=C\[C@@H]2C[C@@]2(C(=O)NS(=O)(=O)C2CC2)NC(=O)[C@@H]2C[C@@H](OC(=O)N3Cc4cc5c(cc4C3)OCO5)CN2C1=O)S(C)(=O)=O` [Compound 12s], under setting [1], the IC50 was under 30 nM.
Turning to `COc1ccc(S(=O)(=O)N[C@H]2CCCCC/C=C\[C@@H]3C[C@@]3(C(=O)NS(=O)(=O)C3CC3)NC(=O)[C@@H]3C[C@@H](OC(=O)N4Cc5cc6c(cc5C4)OCO6)CN3C2=O)cc1` [Compound 16c], the 50% inhibitory concentration (IC50) under setting [1] was under 30 nM.
On the same count and under the same terms, in the case of `CC(C)(C)OC(=O)N([C@H]1CCCCC/C=C\[C@@H]2C[C@@]2(C(=O)NS(=O)(=O)C2CC2)NC(=O)[C@@H]2C[C@@H](OC(=O)N3Cc4ccc5c(c4C3)OCO5)CN2C1=O)S(C)(=O)=O` [Compound 12t] it was under 30 nM.
In turn, `CC[C@H]1C[C@@]1(NC(=O)C1C[C@@H](OC(=O)N2Cc3cc4c(cc3C2)OCO4)CN1C(=O)[C@@H](NC(=O)[C@@H](NC(=O)OCc1ccccc1)C1CCCCC1)C(C)(C)C)C(=O)NS(=O)(=O)C1CC1` (some centres unmarked) [Compound 30y] had an IC50 of under 30 nM.
The compound `CCC[C@H](NC(=O)C1C[C@@H](OC(=O)N2Cc3cc4c(cc3C2)OCCO4)CN1C(=O)[C@@H](NC(=O)[C@@H](NC(=O)c1cnccn1)C1CCCCC1)C(C)(C)C)C(=O)C(=O)NC1CC1` (some centres unmarked) [Compound 33b] returned an IC50 of 30 to 200 nM.
For the compound `CCC[C@H](NC(=O)C1C[C@@H](OC(=O)N2Cc3ccc4c(c3C2)OCO4)CN1C(=O)[C@@H](NC(=O)[C@@H](NC(=O)c1cnccn1)C1CCCCC1)C(C)(C)C)C(=O)C(=O)NC1CC1` (some centres unmarked) [Compound 33c], the half-inhibitory concentration (IC50) was in the range of 30 to 200 nM.
On the same count and under the same terms, the same measure for `CC[C@H]1C[C@@]1(NC(=O)C1C[C@@H](OC(=O)N2Cc3cc4c(cc3C2)OCO4)CN1C(=O)[C@@H](NC(=O)[C@@H](NC(=O)OC(C)C)C1CCCCC1)C(C)(C)C)C(=O)NS(=O)(=O)C1CC1` (some centres unmarked) [Compound 30w]: under 30 nM; for `C=C[C@H]1C[C@@]1(NC(=O)C1C[C@@H](OC(=O)N2Cc3cc4c(cc3C2)OCCCO4)CN1C(=O)[C@@H](NC(=O)[C@@H](NC(=O)c1cnccn1)C1CCCCC1)C(C)(C)C)C(=O)NS(=O)(=O)C1CC1` (some centres unmarked) [Compound 30g]: under 30 nM.
For `O=C1N[C@]2(C(=O)NS(=O)(=O)C3CC3)C[C@H]2/C=C\CCCCC[C@H](NS(=O)(=O)c2ccccc2)C(=O)N2C[C@H](OC(=O)N3Cc4cc5c(cc4C3)OCO5)C[C@@H]12` [Compound 16b], under setting [1], the IC50 is under 30 nM.
In turn, `C=C[C@H]1C[C@@]1(NC(=O)C1C[C@@H](OC(=O)N2Cc3ccc4c(c3C2)OCCO4)CN1C(=O)[C@@H](NC(=O)[C@@H](NC(=O)c1cnccn1)C1CCCCC1)C(C)(C)C)C(=O)NS(=O)(=O)C1CC1` (some centres unmarked) [Compound 30d] registered an IC50 of under 30 nM.
With `O=C1N[C@]2(C(=O)NS(=O)(=O)C3CC3)C[C@H]2/C=C\CCCCCN(C2CC2)C(=O)C2C[C@H](OC(=O)N3Cc4ccc5c(c4C3)OCO5)C[C@@H]12` (some centres unmarked) [Compound 21d], the IC50 under setting [1] was 30 to 200 nM.
As to `C=C[C@H]1C[C@@]1(NC(=O)C1C[C@@H](OC(=O)N2Cc3cccc(F)c3C2)CN1C(=O)[C@@H](NC(=O)OC(C)(C)C)C(C)(C)C)C(=O)NS(=O)(=O)C1CC1` (some centres unmarked) [Compound 30aj], the IC50 under setting [1] is under 30 nM.
The compound `CCC[C@H](NC(=O)C1C[C@@H](OC(=O)N2Cc3ccc4c(c3C2)OCCO4)CN1C(=O)[C@@H](NC(=O)[C@@H](NC(=O)c1cnccn1)C1CCCCC1)C(C)(C)C)C(=O)C(=O)NC1CC1` (some centres unmarked) [Compound 33d] registered an IC50 of over 200 nM.
Take `C=C[C@H]1C[C@@]1(NC(=O)C1C[C@@H](OC(=O)N2Cc3cc4c(cc3C2)OCO4)CN1C(=O)[C@@H](NC(=O)NC(C)(C)C)C(C)(C)C)C(=O)NS(=O)(=O)C1CC1` (some centres unmarked) [Compound 30ar]: the IC50 under setting [1] is under 30 nM.
The same measure, in the same setting: in the case of `C=C[C@H]1C[C@@]1(NC(=O)C1C[C@@H](OC(=O)N2Cc3cc4c(cc3C2)OCO4)CN1C(=O)[C@@H](NC(=O)OC(C)(C)C)C(C)(C)C)C(=O)NS(=O)(=O)C1CC1` (some centres unmarked) [Compound 30af] it was under 30 nM.

(Values after US8815796B2, “Polyheterocyclic compounds highly potent as HCV inhibitors” (AB Pharma Ltd., priority 2010, dated 2014).)
